Experimental data reported in paper PMC5218480 (PLoS ONE, 2017).

Test system: MV-4-11 cells
Test: Gene expression microarray analysis (Affymetrix PrimeView) and GSEA
Type: cell-based, human
Design: RFU PODN (11730768_x_at) / Fold change /veh PODN (11730768_x_at) / RFU LINC00158 (11744669_a_at) / Fold change /veh LINC00158 (11744669_a_at) / RFU DUSP10 (11751237_a_at) / Fold change /veh DUSP10 (11751237_a_at) / RFU ID3 (11757404_x_at) / Fold change /veh ID3 (11757404_x_at) / RFU PLEKHG5 (11737974_s_at) / Fold change /veh PLEKHG5 (11737974_s_at) / RFU LRRC4B (11730491_at) / Fold change /veh LRRC4B (11730491_at) / RFU GIMAP4 (11747438_a_at) / Fold change /veh GIMAP4 (11747438_a_at) / RFU KRT8 (11758183_x_at) / Fold change /veh KRT8 (11758183_x_at) / RFU CNN1 (11734310_a_at) / Fold change /veh CNN1 (11734310_a_at) / RFU VPS37D (11726825_at) / Fold change /veh VPS37D (11726825_at) / RFU C10orf10 (11716522_x_at) / Fold change /veh C10orf10 (11716522_x_at) / RFU KIR2DL2 /// KIR2DL4 /// KIR2DL5A /// KIR2DL5B /// KIR2DS1 /// KIR2DS2 /// KIR2DS3 /// KIR2DS4 /// KIR3DL3 /// KIR3DL3 /// KIR3DS1 (11738374_at) / Fold change /veh KIR2DL2 /// KIR2DL4 /// KIR2DL5A /// KIR2DL5B /// KIR2DS1 /// KIR2DS2 /// KIR2DS3 /// KIR2DS4 /// KIR3DL3 /// KIR3DL3 /// KIR3DS1 (11738374_at) / RFU C1QL1 (11718748_at) / Fold change /veh C1QL1 (11718748_at) / RFU TMPRSS4 (11747572_a_at) / Fold change /veh TMPRSS4 (11747572_a_at) / RFU HAMP (11756126_x_at) / Fold change /veh HAMP (11756126_x_at) / RFU RNFT2 (11725882_a_at) / Fold change /veh RNFT2 (11725882_a_at) / RFU NR4A2 (11747474_a_at) / Fold change /veh NR4A2 (11747474_a_at) / RFU ABCC12 (11746883_a_at) / Fold change /veh ABCC12 (11746883_a_at) / RFU TMEM136 (11760407_x_at) / Fold change /veh TMEM136 (11760407_x_at) / RFU CLDN22 /// WWC2 (11732394_at) / Fold change /veh CLDN22 /// WWC2 (11732394_at) / RFU HLA-DPB1 (11760878_x_at) / Fold change /veh HLA-DPB1 (11760878_x_at) / RFU SPINT1 (11716480_a_at) / Fold change /veh SPINT1 (11716480_a_at) / RFU GAP43 (11754022_s_at) / Fold change /veh GAP43 (11754022_s_at) / RFU A4GNT (11735810_at) / Fold change /veh A4GNT (11735810_at) / RFU PRB3 (11715151_x_at) / Fold change /veh PRB3 (11715151_x_at) / RFU TUBB4B (11761932_at) / Fold change /veh TUBB4B (11761932_at) / RFU CAPN14 (11732068_a_at) / Fold change /veh CAPN14 (11732068_a_at) / RFU TMCC2 (11721928_a_at) / Fold change /veh TMCC2 (11721928_a_at) / RFU IRGQ (11745062_a_at) / Fold change /veh IRGQ (11745062_a_at) / RFU FAM174B (11720279_a_at) / Fold change /veh FAM174B (11720279_a_at) / RFU TMPRSS4 (11748680_a_at) / Fold change /veh TMPRSS4 (11748680_a_at) / RFU FAM212B (11763350_a_at) / Fold change /veh FAM212B (11763350_a_at) / RFU PLEKHG5 (11743358_a_at) / Fold change /veh PLEKHG5 (11743358_a_at) / RFU ZSCAN30 (11745921_a_at) / Fold change /veh ZSCAN30 (11745921_a_at) / RFU CMKLR1 (11741424_a_at) / Fold change /veh CMKLR1 (11741424_a_at) / RFU LOC101060620 /// MAPK8IP1 (11723275_at) / Fold change /veh LOC101060620 /// MAPK8IP1 (11723275_at) / RFU SPTSSB (11747773_x_at) / Fold change /veh SPTSSB (11747773_x_at) / RFU PRSS12 (11739890_at) / Fold change /veh PRSS12 (11739890_at) / RFU BIN1 (11741810_x_at) / Fold change /veh BIN1 (11741810_x_at) / RFU WNT11 (11732464_a_at) / Fold change /veh WNT11 (11732464_a_at) / RFU C10orf10 (11716521_a_at) / Fold change /veh C10orf10 (11716521_a_at) / RFU C5orf56 (11738089_at) / Fold change /veh C5orf56 (11738089_at) / RFU CYB561 (11721691_x_at) / Fold change /veh CYB561 (11721691_x_at) / RFU ANKRD19P (11752326_a_at) / Fold change /veh ANKRD19P (11752326_a_at) / RFU OR2T12 /// OR2T33 /// OR2T8 (11738714_s_at) / Fold change /veh OR2T12 /// OR2T33 /// OR2T8 (11738714_s_at) / RFU VCAN (11748164_a_at) / Fold change /veh VCAN (11748164_a_at) / RFU JSRP1 (11732532_at) / Fold change /veh JSRP1 (11732532_at) / RFU KRTAP10-11 (11738290_x_at) / Fold change /veh KRTAP10-11 (11738290_x_at) / RFU MYO3A (11730013_a_at) / Fold change /veh MYO3A (11730013_a_at) / RFU EBF3 (11725865_a_at) / Fold change /veh EBF3 (11725865_a_at) / RFU CAMK2N1 (11719241_x_at) / Fold change /veh CAMK2N1 (11719241_x_at) / RFU C5orf56 (11738088_a_at) / Fold change /veh C5orf56 (11738088_a_at) / RFU OLFML3 (11715873_a_at) / Fold change /veh OLFML3 (11715873_a_at) / RFU LOC100653217 /// NTM (11731650_a_at) / Fold change /veh LOC100653217 /// NTM (11731650_a_at) / RFU MAPK11 (11762145_a_at) / Fold change /veh MAPK11 (11762145_a_at) / RFU FIZ1 (11724087_x_at) / Fold change /veh FIZ1 (11724087_x_at) / RFU OASL (11726364_x_at) / Fold change /veh OASL (11726364_x_at) / RFU SOX15 (11748057_x_at) / Fold change /veh SOX15 (11748057_x_at) / RFU CD79A (11719716_a_at) / Fold change /veh CD79A (11719716_a_at) / RFU HIST1H1D (11736915_at) / Fold change /veh HIST1H1D (11736915_at) / RFU CASKIN2 (11723855_a_at) / Fold change /veh CASKIN2 (11723855_a_at) / RFU LOC730098 (11760151_x_at) / Fold change /veh LOC730098 (11760151_x_at) / RFU OR4N2 (11742367_at) / Fold change /veh OR4N2 (11742367_at) / RFU PRRT2 (11749266_a_at) / Fold change /veh PRRT2 (11749266_a_at) / RFU SNX32 (11753110_a_at) / Fold change /veh SNX32 (11753110_a_at) / RFU CDHR5 (11726645_a_at) / Fold change /veh CDHR5 (11726645_a_at) / RFU RCAN1 (11760418_a_at) / Fold change /veh RCAN1 (11760418_a_at) / RFU FAM167A (11723789_a_at) / Fold change /veh FAM167A (11723789_a_at) / RFU FAM26E (11764081_at) / Fold change /veh FAM26E (11764081_at) / RFU ISYNA1 (11749810_s_at) / Fold change /veh ISYNA1 (11749810_s_at) / RFU ACY1 (11761880_at) / Fold change /veh ACY1 (11761880_at) / RFU 11764098_at / Fold change /veh 11764098_at / RFU SAMD14 (11745864_x_at) / Fold change /veh SAMD14 (11745864_x_at) / RFU NPB (11741838_a_at) / Fold change /veh NPB (11741838_a_at) / RFU TMPRSS6 (11731388_a_at) / Fold change /veh TMPRSS6 (11731388_a_at) / RFU KRTAP10-2 (11738614_at) / Fold change /veh KRTAP10-2 (11738614_at) / RFU ARHGAP8 /// PRR5-ARHGAP8 (11727945_x_at) / Fold change /veh ARHGAP8 /// PRR5-ARHGAP8 (11727945_x_at) / RFU KRTAP5-7 /// NADSYN1 (11734609_at) / Fold change /veh KRTAP5-7 /// NADSYN1 (11734609_at) / RFU RASL12 (11751679_a_at) / Fold change /veh RASL12 (11751679_a_at) / RFU CDKN2B (11736163_a_at) / Fold change /veh CDKN2B (11736163_a_at) / RFU PRF1 (11729649_at) / Fold change /veh PRF1 (11729649_at) / RFU, ZNF638 /// ZNF638-IT1 / Fold change vs veh, ZNF638 /// ZNF638-IT1 / RFU, PANK3 / Fold change vs veh, PANK3 / RFU, SH3YL1 / Fold change vs veh, SH3YL1 / RFU, ZEB2 / Fold change vs veh, ZEB2 / RFU, NRIP1 / Fold change vs veh, NRIP1 / RFU, PTTG1IP / Fold change vs veh, PTTG1IP / RFU, CAPN2 / Fold change vs veh, CAPN2 / RFU, MED14 / Fold change vs veh, MED14 / RFU, SNORA58 / Fold change vs veh, SNORA58 / RFU, C1orf63 / Fold change vs veh, C1orf63 / RFU, LRRFIP1 / Fold change vs veh, LRRFIP1 / RFU, NDUFAF7 / Fold change vs veh, NDUFAF7 / RFU, SLC12A2 / Fold change vs veh, SLC12A2 / RFU, IBTK / Fold change vs veh, IBTK / RFU, ESF1 / Fold change vs veh, ESF1 / Fold change vs veh, TMEM50B / RFU, TAOK1 / Fold change vs veh, TAOK1 / RFU, ACBD3 / Fold change vs veh, ACBD3 / RFU, TMA16 / Fold change vs veh, TMA16 / RFU, RWDD3 / Fold change vs veh, RWDD3 / RFU, BCAT1 / Fold change vs veh, BCAT1 / RFU, EDEM3 / Fold change vs veh, EDEM3 / RFU, TMEM33 / Fold change vs veh, TMEM33 / RFU, WDR75 / Fold change vs veh, WDR75 / RFU, AHCTF1 / Fold change vs veh, AHCTF1 / RFU, TFRC / Fold change vs veh, TFRC / RFU, ZDHHC17 / Fold change vs veh, ZDHHC17 / RFU, NOM1 / Fold change vs veh, NOM1 / RFU, ARL8B / Fold change vs veh, ARL8B / RFU, ZBTB11 / Fold change vs veh, ZBTB11 / RFU, TAMM41 / Fold change vs veh, TAMM41 / RFU, KIAA1704 /// LOC100996395 / Fold change vs veh, KIAA1704 /// LOC100996395 / RFU, ING1 / Fold change vs veh, ING1 / RFU, TRMT61B / Fold change vs veh, TRMT61B / RFU, FUBP3 / Fold change vs veh, FUBP3 / RFU, TP53 / Fold change vs veh, TP53 / RFU, TNKS2 / Fold change vs veh, TNKS2 / RFU, ZFP14 / Fold change vs veh, ZFP14 / RFU, ACTR2 / Fold change vs veh, ACTR2 / RFU, PPP3R1 / Fold change vs veh, PPP3R1 / RFU, PIK3R1 / Fold change vs veh, PIK3R1 / RFU, HNRNPA1 / Fold change vs veh, HNRNPA1 / RFU, RNF170 / Fold change vs veh, RNF170 / RFU, ZNF28 / Fold change vs veh, ZNF28 / RFU, RNGTT / Fold change vs veh, RNGTT / RFU, OGT / Fold change vs veh, OGT / RFU, BRD1 / Fold change vs veh, BRD1 / RFU, MARS / Fold change vs veh, MARS / RFU, ZNF655 / Fold change vs veh, ZNF655 / RFU, FAHD1 / Fold change vs veh, FAHD1 / RFU, BDP1 / Fold change vs veh, BDP1 / RFU, LRRCC1 / Fold change vs veh, LRRCC1 / RFU, ARID1A / Fold change vs veh, ARID1A / RFU, ZNF146 / Fold change vs veh, ZNF146 / RFU, ZNF330 / Fold change vs veh, ZNF330 / RFU, GPN3 / Fold change vs veh, GPN3 / RFU, C9orf123 / Fold change vs veh, C9orf123 / RFU, N4BP2L2 / Fold change vs veh, N4BP2L2 / RFU, ARFIP1 / Fold change vs veh, ARFIP1 / RFU, FAM179B / Fold change vs veh, FAM179B / RFU, BCL10 / Fold change vs veh, BCL10 / RFU, UHRF1BP1L / Fold change vs veh, UHRF1BP1L / RFU, BET1 / Fold change vs veh, BET1 / RFU, CNOT2 / Fold change vs veh, CNOT2 / RFU, ZNF268 / Fold change vs veh, ZNF268 / Fold change vs veh, ZNF507 / RFU, DGCR2 / Fold change vs veh, DGCR2 / RFU, WDSUB1 / Fold change vs veh, WDSUB1 / Fold change vs veh, HSP90B1 /// MIR3652 / RFU, ADSS / Fold change vs veh, ADSS / RFU, GK / Fold change vs veh, GK / RFU, ZNF148 / Fold change vs veh, ZNF148 / RFU, TAF9 / Fold change vs veh, TAF9 / RFU, SLC1A5 / Fold change vs veh, SLC1A5 / RFU, SLMO2 / Fold change vs veh, SLMO2 / RFU, ABCC4 / Fold change vs veh, ABCC4 / RFU, LOC101060439 /// RAP1B / Fold change vs veh, LOC101060439 /// RAP1B / RFU, RFX7 / Fold change vs veh, RFX7 / RFU, GTPBP10 / Fold change vs veh, GTPBP10 / RFU, CNEP1R1 / Fold change vs veh, CNEP1R1 / RFU, BIVM-ERCC5 /// ERCC5 / Fold change vs veh, BIVM-ERCC5 /// ERCC5 / RFU, ILF3 / Fold change vs veh, ILF3 / RFU 11762660_at / Fold change /veh 11762660_at / RFU VCAN (11757783_s_at) / Fold change /veh VCAN (11757783_s_at) / RFU DDX43 (11728927_at) / Fold change /veh DDX43 (11728927_at) / RFU KRT8 (11758188_x_at) / Fold change /veh KRT8 (11758188_x_at) / RFU NKD1 (11759106_at) / Fold change /veh NKD1 (11759106_at) / RFU SRD5A1 (11742802_a_at) / Fold change /veh SRD5A1 (11742802_a_at) / RFU TPSAB1 /// TPSB2 (11721975_s_at) / Fold change /veh TPSAB1 /// TPSB2 (11721975_s_at) / RFU GSTM3 (11746129_a_at) / Fold change /veh GSTM3 (11746129_a_at) / RFU IL23R (11737362_x_at) / Fold change /veh IL23R (11737362_x_at) / RFU TMEM51 (11727254_a_at) / Fold change /veh TMEM51 (11727254_a_at) / RFU PIWIL2 (11732686_x_at) / Fold change /veh PIWIL2 (11732686_x_at) / RFU ORM1 (11744905_x_at) / Fold change /veh ORM1 (11744905_x_at) / RFU CCDC152 (11743942_at) / Fold change /veh CCDC152 (11743942_at) / RFU ECM1 (11717891_a_at) / Fold change /veh ECM1 (11717891_a_at) / RFU IL23R (11748794_a_at) / Fold change /veh IL23R (11748794_a_at) / RFU TNFAIP8L3 (11732012_x_at) / Fold change /veh TNFAIP8L3 (11732012_x_at) / RFU MBOAT4 (11741988_at) / Fold change /veh MBOAT4 (11741988_at) / RFU 11764193_at / Fold change /veh 11764193_at / RFU TMEM53 (11763286_at) / Fold change /veh TMEM53 (11763286_at) / RFU MAGEB2 (11727129_at) / Fold change /veh MAGEB2 (11727129_at) / RFU TMEM200A (11744735_a_at) / Fold change /veh TMEM200A (11744735_a_at) / RFU CCDC152 (11751479_a_at) / Fold change /veh CCDC152 (11751479_a_at) / RFU FAM211A (11726209_a_at) / Fold change /veh FAM211A (11726209_a_at) / RFU RGS16 (11746705_a_at) / Fold change /veh RGS16 (11746705_a_at) / RFU VCAN (11755009_s_at) / Fold change /veh VCAN (11755009_s_at) / RFU RHOB (11743442_s_at) / Fold change /veh RHOB (11743442_s_at) / RFU RGS16 (11720943_a_at) / Fold change /veh RGS16 (11720943_a_at) / RFU RGS16 (11720944_at) / Fold change /veh RGS16 (11720944_at) / RFU, VPS4B / Fold change vs veh, VPS4B / RFU, CREB1 / Fold change vs veh, CREB1 / RFU, DNAJC13 / Fold change vs veh, DNAJC13 / RFU, GNAQ / Fold change vs veh, GNAQ / RFU, CDK5R1 / Fold change vs veh, CDK5R1 / RFU, ZRANB3 / Fold change vs veh, ZRANB3 / RFU, CUL4A / Fold change vs veh, CUL4A / RFU, CCNY / Fold change vs veh, CCNY / RFU, UFL1 / Fold change vs veh, UFL1 / RFU, COG3 / Fold change vs veh, COG3 / RFU, DIAPH2 / Fold change vs veh, DIAPH2 / RFU, SKA2 / Fold change vs veh, SKA2 / RFU, AFF3 / Fold change vs veh, AFF3 / RFU, LMF1 / Fold change vs veh, LMF1 / RFU, IPO11 / Fold change vs veh, IPO11 / RFU, DFFB / Fold change vs veh, DFFB / RFU, FOXP1 / Fold change vs veh, FOXP1 / RFU, CARD8 / Fold change vs veh, CARD8 / RFU, STRN3 / Fold change vs veh, STRN3 / RFU, ADK / Fold change vs veh, ADK / RFU, RASSF2 / Fold change vs veh, RASSF2 / RFU, WIPF1 / Fold change vs veh, WIPF1 / RFU, LARP1B / Fold change vs veh, LARP1B / RFU, RASA1 / Fold change vs veh, RASA1 / RFU, RB1 / Fold change vs veh, RB1 / RFU, PPFIA1 / Fold change vs veh, PPFIA1 / RFU, MAT2A / Fold change vs veh, MAT2A / RFU, CCT5 / Fold change vs veh, CCT5 / RFU, WDR92 / Fold change vs veh, WDR92 / RFU, CUX1 / Fold change vs veh, CUX1 / RFU, TTC7A / Fold change vs veh, TTC7A / RFU, TMEM135 / Fold change vs veh, TMEM135 / RFU, DEPTOR / Fold change vs veh, DEPTOR / RFU, CPM / Fold change vs veh, CPM / RFU, DNAJB6 / Fold change vs veh, DNAJB6 / RFU, CACNA2D3 / Fold change vs veh, CACNA2D3 / RFU, DTX4 / Fold change vs veh, DTX4 / RFU, TFCP2 / Fold change vs veh, TFCP2 / RFU, GMCL1 /// GMCL1P1 / Fold change vs veh, GMCL1 /// GMCL1P1 / RFU, AEBP2 / Fold change vs veh, AEBP2 / RFU, SNHG1 /// SNORD22 /// SNORD25 /// SNORD26 /// SNORD27 /// SNORD28 /// SNORD29 /// SNORD31 / Fold change vs veh, SNHG1 /// SNORD22 /// SNORD25 /// SNORD26 /// SNORD27 /// SNORD28 /// SNORD29 /// SNORD31 / Fold change (Aza/veh), C12orf56 (ProbeSet 11735607_a_at) / Fold change (ACY-1035/veh), C12orf56 (ProbeSet 11735607_a_at) / Fold change (Aza/veh), FGFR1OP (ProbeSet 11751329_s_at) / Fold change (ACY-1035/veh), FGFR1OP (ProbeSet 11751329_s_at) / Fold change (Aza/veh), VPS36 (ProbeSet 11739960_a_at) / Fold change (ACY-1035/veh), VPS36 (ProbeSet 11739960_a_at) / RFU SYPL1 (11715823_x_at) / Fold change /veh SYPL1 (11715823_x_at) / RFU IGFBP7 (11715501_s_at) / Fold change /veh IGFBP7 (11715501_s_at) / RFU REEP3 (11722064_at) / Fold change /veh REEP3 (11722064_at) / RFU IGLL1 (11728026_x_at) / Fold change /veh IGLL1 (11728026_x_at): dose or concentration left out as unconfirmed
Conditions: MV-4-11 cells, 48 hours

**Q.** How did the “RFU IGFBP7 (11715501_s_at)” value turn out when `Nc1ccc(-c2cccs2)cc1NC(=O)c1ccc2c(c1)cc(C1CC1)n2CCN1CCOCC1` [ACY-1035] was run?
**A.** The value was 134.15 RFU.
